In patent publication US9550815B2, “ABC terpenoid transporters and methods of using the same” (priority 2012, dated 2017):

Key:
[1] = tested on: G. clavigera WT; experiment: Mycelium growth on MEA with monoterpenes; assay type: cell-based, Grosmannia clavigera; conditions: for growth delay of G. clavigera WT: 200 μL individual monoterpene or MT; for fungal growth rate, G. clavigera WT: 200 μL monoterpene, linear phase after delay
Method: (§1) Mono- and diterpene treatments were performed on glass petri dishes with the mono- and diterpenes applied to filter paper that was placed in the cover of the petri dish, which was sealed by Duraseal film. Specifically, plugs of actively growing G. clavigera fungal cultures on MEA were transferred into the center of glass petri dishes containing yeast nitrogen base-complete medium (YNB-CM; 0.17% YNB without amino acids, 1.5% granulated agar, 1% maltose, 0.1% PHP, and 0.3% asparagine). Two (2×4 cm) strips of filter paper were placed inside the lid of the plate and 200 μL of individual mono- or diterpenes or a mixture of monoterpenes (MT) were added onto the filter paper. The glass plates were sealed with DuraSeal™ film (Laboratory Sealing Film, VWR, cat #89031-573) and incubated at ˜22° C. in a sealed glass container for 7 days or until the mycelium reached the edge of the plates. Colony diameters were measured daily.
(§2) Colony morphologies and growth rates were examined for G. clavigera WT and mutant Δgcabc-g1 grown on malt extract agar (MEA) in the presence and absence of 200 μL of a mixture of monoterpenes as described in Example 3.A.1. above. Fungal growth rates were calculated (mm/day). Mycelium growth rates were also determined in the presence or absence of 200 μL of individual monoterpenes, including R-(+)-limonene, 3-carene, α-pinene and β-pinene, or 200 μL of a mixture of monoterpenes (R-(+)-limonene, 3-carene, α-pinene and β-pinene at a ratio of 5:3:1:1). Fungal spores were incubated for 3 days on MEA overlaid with cellophane (Amersham Biosciences, cat #80611781); then the young mycelia were treated with individual monoterpenes or a mixture of monoterpenes (200 μL) for 3-4 days before being transferred onto YNB. In YNB, monoterpenes were provided on filter paper as described in Example 3.A.1. and if necessary were re-supplied biweekly until the mycelia covered at least half of the media surface (3-4 weeks). Colony diameters were measured daily. Fungal growth rates were calculated (mm/day). Results were calculated as the average of 5 replicates and standard deviation was calculated.

[2] = tested on: mutant Δgcabc-g1; experiment: Mycelium growth on MEA with monoterpenes; assay type: cell-based, Grosmannia clavigera; conditions: for growth delay of mutant Δgcabc-g1: 200 μL individual monoterpene or MT; for fungal growth rate, mutant Δgcabc-g1 / growth rate of mutant Δgcabc-g1 lower than G. clavigera WT: 200 μL monoterpene; for fungal growth rate, mutant Δgcabc-g1: linear phase after delay
Method: as §1
Agrobacterium GV3101, a laboratory stock, was used to transform G. clavigera. The whole gene open reading frame (ORF) encoding GcABC-G1 in G. clavigera was replaced with the selective gene marker hygromycin B (hph). Gene replacement (deletion) was verified by PCR amplification of adjacent regions, target region and selective marker gene, and copy numbers were determined by southern blot. The G. clavigera GcABC-G1 deletion mutant was designated mutant Δgcabc-g1.
as §2

[3] = tested on: G. clavigera WT fungal spores; experiment: Asexual spore germination and survival with monoterpenes; assay type: cell-based, Grosmannia clavigera; conditions: MEA, 200 μL monoterpene; for spore germination inhibition, G. clavigera: counted after 6 days; for spore germination partially reduced, G. clavigera: 6 days, relative to non-treated control
Method: (§3) G. clavigera WT or mutant Δgcabc-g1 fungal spores were collected from 7-14 day old cultures grown on MEA (0.83% Oxoid™ malt extract agar and 0.75% technical agar, pH was adjusted to 5-6). Mycelium debris was removed by filtration (BD Falcon Cell Strainers; cat #08-771-1). Spore concentrations were determined using a haemocytometer and further diluted to ˜2 spores/μL. 100 μL of the spore suspension was spread on MEA in glass plates. For monoterpene treatment, two (2×4 cm) strips of filter paper were placed inside the lid of the plate and 200 μL of a mixture of monoterpenes were added onto the filter paper. For diterpene treatment, 100 μL of the spore suspension was spread on MEA containing 0.01% of a mixture of diterpenes (abietic acid, dehydroabietic acid and isopimaric acid). The glass plates were sealed with DuraSeal™ film (Laboratory Sealing Film, VWR, cat #89031-573) and incubated at ˜22° C. in a sealed glass container. The germinated spores were counted daily; at day 6 the monoterpenes were removed and the MEA plates were further incubated for 4 days to assess the survival of the spores.

[4] = tested on: mutant Δgcabc-g1 fungal spores; experiment: as above; assay type: cell-based, Grosmannia clavigera
Method: as §3

[5] = tested on: Wildtype G. clavigera; experiment: Growth on YNB with monoterpenes as sole carbon source; assay type: cell-based, Grosmannia clavigera; conditions: 200 μL, 4 weeks
Method: (§4) Fungal spores were incubated for 3 days on 1% malt extract agar (MEA) overlaid with cellophane (Amersham Biosciences, cat #80611781), then the young mycelia were treated with a mixture of monoterpenes (200 μL) for 3-4 days before being transferred onto yeast nitrogen base (YNB) medium with a mixture of monoterpenes (MT) as sole carbon source (YNB+MT; […] YNB without amino acids, but with ammonium sulphate) in glass plates. The synthetic monoterpenoid blend contained R-(+)-limonene, 3-carene, α-pinene and β-pinene at a ratio of 5:3:1:1. If necessary monoterpenes were re-supplied biweekly until the mycelia covered at least half of the media surface (3-4 weeks). RNA-seq analysis was performed after 10 days. G. clavigera grown on YNB+1% mannose as the sole carbon source was used as a control.
(§5) Experiments were performed as described in Example 3.A.2. Growth of wildtype G. clavigera and the mutant Δgcabc-g1 was determined utilizing yeast nitrogen base (YNB)+either 10 μL or 200 μL of (+)-limonene, α-pinene or β-pinene. Growth was determined after 4 weeks. Monoterpenes were re-supplied every 2 weeks. Growth on YNB alone was used as a negative control. Growth on YNB+1% mannose was used as a positive control.

[6] = tested on: Sc-ABC; experiment: Yeast cell survival, dilution plate assay; assay type: cell-based, Saccharomyces cerevisiae; conditions: for Sc-ABC cells survived relative to Sc-V: one-hour treatment, 5 μL monoterpene, counted after 4 days; for Observation (B) Transformed Sc survival: GcABC-G1-dependent difference, Sc-ABC versus Sc-V; for relative inhibition of the yeast GcABC-G1 transformant by individual monoterpenoids: individual monoterpenoids compared
Method: The survival of Sc-V and Sc-ABC with individual monoterpenes was shown using a dilution plate assay. Overnight yeast cultures grown in SG broth were diluted to an OD600 of 0.2 and further grown to an OD600 of 0.4 at 28° C. The yeast cells were diluted to an appropriate density that was spread on SG media in Petri dishes glass (10^5 per petri dish). The yeast cells were treated for one hour with a specific monoterpene (5 μL) diluted in 245 μL ethanol; the solution was applied on five small filter papers placed inside the lid and the glass plates were sealed with DuraSeal film. After one-hour incubation, the chemical was removed and plates were further incubated for 4 days at 28° C. The numbers of surviving cells with and without monoterpene treatments were counted.

[7] = tested on: mutant Δgcabc-g1; experiment: Growth on YNB with monoterpenes as sole carbon source; assay type: cell-based, Grosmannia clavigera
Method: as §4, §5

[8] = tested on: G. clavigera WT; experiment: Growth on MEA with individual diterpenes; assay type: cell-based, Grosmannia clavigera; conditions: individual diterpene in MEA (0.1% per FIG. 8), pH ~8.0
Method: (§6) Growth rates were examined for G. clavigera WT and the mutant Δgcabc-g1 grown on MEA in the presence or absence of 200 μL of abietic acid, dehydroabietic acid and isopimaric acid as described in Example 3.A.2. Each diterpene was dissolved in a basic NaOH solution before being added into the MEA medium; the final pH of the medium was ˜8.0. Growth rates were calculated daily (mm/day). The results are shown in FIG. 8, which indicates growth rate in mm/24 hr for the average of three replicates. Error bar represents standard deviation.

[9] = tested on: mutant Δgcabc-g1; experiment: Growth on MEA with individual diterpenes; assay type: cell-based, Grosmannia clavigera; conditions: individual diterpene in MEA (0.1% per FIG. 8), pH ~8.0
Method: as §6

[10] = tested on: O. piceae; experiment: Growth on YNB with quinic acid as sole carbon source; assay type: cell-based, Ophiostoma piceae; conditions: YNB media
Description: The cluster contains seven genes that include a quinate permease, two regulatory genes, one acting as an activator and the other as a repressor, and the four genes of the quinate/shikamate catabolic pathway (Asch et al. (1991) Mol Gen Genet 230(3):337-344, Giles et al. J Hered 82(1):1-7). The latter four catabolic genes (OPP_08735 to OPP_08738) reveal that O. piceae uses quinic acid in wood as a carbon source. While this gene cluster is reported in many fungi, this gene cluster was not identified in G. clavigera. […] Finally, a secreted lipase (OPP_00605) with a predicted triglycerides degradation activity was identified; its abundance relative to the control mannose was at least 50-fold.

[11] = MEA, 200 μL monoterpene, 6 days

SMILES | growth delay of G. clavigera WT [1] | growth delay of mutant Δgcabc-g1 [2] | Observation (A) Gc spore survival ([4]; {}) | growth with monoterpene as sole carbon source, wildtype G. clavigera [5] | Sc-ABC cells survived relative to Sc-V [6] | spore germination, mutant Δgcabc-g1 [4, 11] | Observation (B) Transformed Sc survival [6] | also measured
CC1=CCC2CC1C2(C)C (racemic) [α-pinene] | not | 1 days | + (Difference between with and without GcABC-G1 is less than 50%, P-value < 0.01) | not able to utilize | not significantly different |  |  | fungal growth rate, G. clavigera WT [1]: ~7 mm/day; fungal growth rate, mutant Δgcabc-g1 [2]: ~7 mm/day; spore germination inhibition, G. clavigera [3]: not inhibited; spore germination reduced, mutant Δgcabc-g1 ([4]; MEA, 200 μL monoterpene, 6 days, relative to non-treated control): 30%
C=C(C)C1CC=C(C)CC1 (single isomer, unassigned; (+)) [(+)-limonene, R-(+)-limonene] | 1 days | 2 days |  | grew | approximately 7 times | completely prevent spore germination | +++ (Difference between with and without GcABC-G1 is more than 50%, P-value < 0.01) | growth rate of mutant Δgcabc-g1 lower than G. clavigera WT [2]: 52%; spore germination partially reduced, G. clavigera [3]: ~70%; Observation (A) Gc spore survival ([4]; GcABC-G1-dependent difference, Gc versus Δgcabc-g1): + (Difference between with and without GcABC-G1 is less than 50%, P-value < 0.01); fate of mutant Δgcabc-g1 on YNB with monoterpene ([7]; 10 μL): survived, but did not grow; fate of mutant Δgcabc-g1 on YNB with monoterpene ([7]; 200 μL): killed; relative inhibition of the yeast GcABC-G1 transformant by individual monoterpenoids [6]: least inhibitory effect
CC1=CCC2C(C1)C2(C)C (centres unmarked) [3-carene] | 1 days | 2 days | +++ (Difference between with and without GcABC-G1 is more than 50%, P-value < 0.01) |  | approximately 30 times | completely prevent spore germination | +++ (Difference between with and without GcABC-G1 is more than 50%, P-value < 0.01) | fungal growth rate, G. clavigera WT [1]: 5 to 6 mm/day; fungal growth rate, mutant Δgcabc-g1 [2]: 5 to 6 mm/day; spore germination inhibition, G. clavigera [3]: not inhibited
C=C1CC[C@H]2C[C@@H]1C2(C)C [(−)-β-pinene, (1S)-(−)-β-Pinene] |  | up to 3 days | + (Difference between with and without GcABC-G1 is less than 50%, P-value < 0.01) | not able to utilize | ~3 times | completely prevent spore germination | +++ (Difference between with and without GcABC-G1 is more than 50%, P-value < 0.01) | growth rate of mutant Δgcabc-g1 lower than G. clavigera WT [2]: 60%; spore germination partially reduced, G. clavigera [3]: ~70%; relative inhibition of the yeast GcABC-G1 transformant by individual monoterpenoids [6]: strongest inhibition effect
CC(C)C1=CC2=CC[C@@H]3[C@](C)(CCC[C@@]3(C)C(=O)O)[C@H]2CC1 [abietic acid] |  |  |  |  |  |  |  | growth inhibition, G. clavigera WT [8]: only slightly inhibited growth; growth inhibition, mutant Δgcabc-g1 [9]: only slightly inhibited growth
C=C[C@@]1(C)CC[C@H]2C(=CC[C@@H]3[C@]2(C)CCC[C@@]3(C)C(=O)O)C1 [isopimaric acid] |  |  |  |  |  |  |  | growth inhibition, G. clavigera WT [8]: only slightly inhibited growth; growth inhibition, mutant Δgcabc-g1 [9]: only slightly inhibited growth
O=C(O)[C@]1(O)C[C@@H](O)[C@@H](O)[C@H](O)C1 [quinic acid] |  |  |  |  |  |  |  | growth of O. piceae with quinic acid as sole carbon source [10]: grows
